Laboratory results as given in ChEMBL document CHEMBL4627310, “Design, synthesis and biological evaluation of 3-nitro-1,8-naphthalimides as potential antitumor agents” (Bioorg Med Chem Lett, 2020).
The source made the active and inactive calls. The rule behind the calls is not given here.

Legend:
[1] = test system: T-24; assay: Anticancer activity against human T24 cells xenografted in mouse assessed as tumor inhibition rate at 15 mg/kg measured at day 14 relative to control; format: functional; conditions: T-24, 336 h
[2] = test system: T-24; assay: Induction of apoptosis in human T24 cells assessed as early apoptotic cells at 2.06 uM by AnnexinV/propidium iodide staining based flow cytometry (reference value: 0.7%); format: functional
[3] = test system: T-24; assay: Induction of cell cycle arrest in human T24 cells assessed as upregulation of Wee1 expression at 2 to 8 uM by Western blot analysis; format: functional, cell-based
[4] = test system: HepG2; assay: Anticancer activity against human HepG2 cells xenografted in mouse assessed as tumor inhibition rate at 5 mg/kg measured at day 14 relative to control; format: functional; conditions: HepG2, 336 h
[5] = test system: T-24; assay: Induction of apoptosis in human T24 cells assessed as cell budding by AO/EB staining based assay; format: functional
[6] = test system: T-24; assay: Induction of apoptosis in human T24 cells assessed as pycnosis by AO/EB staining based assay; format: functional, cell-based
[7] = test system: T-24; assay: Induction of apoptosis in human T24 cells assessed as late apoptotic cells at 4.13 uM by AnnexinV/propidium iodide staining based flow cytometry (reference value: 0%); format: functional
[8] = test system: T-24; assay: Induction of apoptosis in human T24 cells assessed as early apoptotic cells at 8.26 uM by AnnexinV/propidium iodide staining based flow cytometry (reference value: 0.7%); format: functional
[9] = test system: T-24; assay: Cell cycle arrest in human T24 cells assessed as accumulation at G2/M phase at 2.06 uM measured after 24 hrs by propidium iodide staining based fluorescence analysis (reference value: 10.16%); format: functional
[10] = test system: HepG2; assay: Anticancer activity against human HepG2 cells xenografted in mouse assessed as tumor inhibition rate at 15 mg/kg measured at day 14 relative to control; format: functional; conditions: HepG2, 336 h
[11] = test system: T-24; assay: Induction of apoptosis in human T24 cells assessed as late apoptotic cells at 2.06 uM by AnnexinV/propidium iodide staining based flow cytometry (reference value: 0%); format: functional
[12] = test system: SMMC-7721; assay: Antiproliferative activity against human SMMC7721 cells assessed as cell growth inhibition measured after 48 hrs by MTT assay; format: functional, cell-based; conditions: SMMC-7721, 48 h
[13] = test system: T-24; assay: Induction of apoptosis in human T24 cells assessed as upregulation of cytosolic cytochrome-C expression at 2 to 8 uM by Western blot analysis; format: functional, cell-based
[14] = test system: T-24; assay: Cell cycle arrest in human T24 cells assessed as accumulation at S phase at 8.26 uM measured after 24 hrs by propidium iodide staining based fluorescence analysis (reference value: 23.67%); format: functional
[15] = test system: T-24; assay: Induction of cell cycle arrest in human T24 cells assessed as upregulation of p21 expression at 2 to 8 uM by Western blot analysis; format: functional, cell-based
[16] = test system: T-24; assay: Induction of apoptosis in human T24 cells assessed as early apoptotic cells at 4.13 uM by AnnexinV/propidium iodide staining based flow cytometry (reference value: 0.7%); format: functional
[17] = test system: T-24; assay: Induction of cell cycle arrest in human T24 cells assessed as upregulation of cdc-2Ty expression at 2 to 8 uM by Western blot analysis; format: functional, cell-based
[18] = test system: T-24; assay: Cell cycle arrest in human T24 cells assessed as accumulation at G1 phase at 2.06 uM measured after 24 hrs by propidium iodide staining based fluorescence analysis (reference value: 66.18%); format: functional
[19] = test system: DNA; assay: Binding affinity to supercoiled circular Escherichia coli pBR322 DNA assessed as DNA intercalation at 20 to 100 uM by gel electrophoresis mobility shift assay; format: nucleic-acid assay
[20] = test system: T-24; assay: Induction of apoptosis in human T24 cells assessed as necrotic cells at 4.13 uM by AnnexinV/propidium iodide staining based flow cytometry (reference value: 0.1%); format: functional
[21] = test system: T-24; assay: Induction of apoptosis in human T24 cells assessed as necrotic cells at 2.06 uM by AnnexinV/propidium iodide staining based flow cytometry (reference value: 0.1%); format: functional
[22] = test system: T-24; assay: Induction of cell cycle arrest in human T24 cells assessed as upregulation of gammaH2AX expression at 2 to 8 uM by Western blot analysis; format: functional, cell-based
[23] = test system: T-24; assay: Anticancer activity against human T24 cells xenografted in mouse assessed as tumor inhibition rate at 5 mg/kg measured at day 14 relative to control; format: functional; conditions: T-24, 336 h
[24] = test system: L02; assay: Cytotoxicity against human HL7702 cells assessed as cell growth inhibition measured after 48 hrs by MTT assay; format: cell-based; conditions: L02, 48 h
[25] = test system: T-24; assay: Cell cycle arrest in human T24 cells assessed as accumulation at S phase at 4.13 uM measured after 24 hrs by propidium iodide staining based fluorescence analysis (reference value: 23.67%); format: functional
[26] = test system: T-24; assay: Cell cycle arrest in human T24 cells assessed as accumulation at G1 phase at 8.26 uM measured after 24 hrs by propidium iodide staining based fluorescence analysis (reference value: 66.18%); format: functional
[27] = test system: T-24; assay: Cell cycle arrest in human T24 cells assessed as accumulation at G2/M phase at 8.26 uM measured after 24 hrs by propidium iodide staining based fluorescence analysis (reference value: 10.16%); format: functional
[28] = test system: T-24; assay: Antiproliferative activity against human T24 cells assessed as cell growth inhibition measured after 48 hrs by MTT assay; format: functional, cell-based; conditions: T-24, 48 h

With `CNCCN1C(=O)c2cccc3cc([N+](=O)[O-])cc(c23)C1=O` the inhibition in vivo at 15 mg/kg [1] was 58.7%, the Activity [2] was 0.9% and the Activity [3] was “Active”. For the same compound, the inhibition in vivo at 5 mg/kg [4] was 26.8%, the Activity [5] was “Active” and the Activity [6] was “Active”. It also gave an Activity [7] of 0%, an Activity [8] of 23.4% and an Activity [9] of 30.01%. It also gave an inhibition in vivo at 15 mg/kg [10] of 60%, an Activity [11] of 0% and an IC50 [12] of 14 µM. The Activity [13] was “Active”, the Activity [14] was 7.71% and the Activity [15] was “Active”. The Activity [16] was 5.4%, the Activity [17] was “Active” and the Activity [18] was 50.17%. The Activity [19] was “Active”, the Activity [20] was 0.1% and the Activity [21] was 0.2%. The Activity [22] was “Active”, the inhibition in vivo at 5 mg/kg [23] was 30.1% and the IC50 [24] was 18.7 µM. It also gave an Activity [25] of 7.99%, an Activity [26] of 0.05% and an Activity [27] of 92.24%. It also gave an IC50 [28] of 4.13 µM.
